In test [1] the target is T1, human estrogen β receptor (hERβ) (Homo sapiens, UniProt Q92731).
T1 construct: expressed in transfected cells; host or cells: CHO cells with rat oxytocin promoter and luciferase reporter (no ERβ line named)
The test can be described thus: competitive binding to cytoplasmic human estrogen receptor from recombinant CHO cells (β-binding). The conditions noted are these: relative affinity (potency ratio), in percentage of the action of the reference compound in the assay; cytosol of recombinant CHO cells. The procedure: (§1) Compounds are tested for their estrogen receptor activity in a binding assay and in a transactivation assay. Determination of competitive binding to cytoplasmic human estrogen receptor from rec.CHO cells is used to estimate the relative affinity (potency ratio) of a test compound for estrogen receptors present in the cytosol of recombinant Chinese hamster ovary (CHO) cells, stably transfected with the human estrogen receptor, as compared with estradiol (E2). Cytosol prepared from recombinant CHO cells, stably transfected with the human estrogen receptor. The cell line has been made within the Department of Biotechnology and Biochemistry (BBC) (N.V. Organon) and is known under the name CHO-ER (2B1). Reference compounds are ethinylestradiol and estriol. The data are expressed in percentage of the action of the reference compound in the assay

The target in test [2] is T2, human estrogen receptor α (hERα) (Homo sapiens, UniProt P03372).
T2 construct: expressed in transfected cells; host or cells: CHO cells, line CHO-ERRO 2B1-1E9, with rat oxytocin promoter and luciferase reporter
T2 sequence (P03372 1-595): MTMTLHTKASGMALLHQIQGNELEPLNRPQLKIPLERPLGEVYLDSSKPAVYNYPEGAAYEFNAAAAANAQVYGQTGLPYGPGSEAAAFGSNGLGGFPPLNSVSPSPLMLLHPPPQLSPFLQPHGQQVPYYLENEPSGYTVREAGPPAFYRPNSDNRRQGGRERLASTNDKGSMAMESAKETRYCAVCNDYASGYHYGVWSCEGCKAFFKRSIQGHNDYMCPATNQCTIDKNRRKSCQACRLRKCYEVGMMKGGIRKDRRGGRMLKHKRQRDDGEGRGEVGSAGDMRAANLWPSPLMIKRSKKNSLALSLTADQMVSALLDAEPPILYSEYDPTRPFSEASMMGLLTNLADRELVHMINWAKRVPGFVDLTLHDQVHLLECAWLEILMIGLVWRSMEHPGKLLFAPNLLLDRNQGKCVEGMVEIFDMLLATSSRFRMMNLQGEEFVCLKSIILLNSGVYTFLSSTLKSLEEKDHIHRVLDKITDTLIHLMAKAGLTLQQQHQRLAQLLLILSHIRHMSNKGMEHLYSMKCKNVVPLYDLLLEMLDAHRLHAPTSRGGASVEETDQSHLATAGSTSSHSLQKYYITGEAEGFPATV
As to the kind of experiment: transactivation assay in recombinant CHO cells (rat oxytocin promoter, luciferase reporter), α. Particulars: potency ratio, in percentage of the action of the reference compound in the assay. The test is classed as cell-based. Here is the method:
(§2) Compounds are tested for their estrogen receptor activity in a binding assay and in a transactivation assay.
(§3) The antiestrogenic activity of compounds is determined in an in vitro bioassay with recombinant Chinese hamster ovary (CHO) cells stably co-transfected with the human estrogen receptor α (hERα) or β receptor (hERβ), the rat oxytocin promoter (RO) and the luciferase reporter gene (LUC). The antiestrogenic activity (potency ratio) of a test compound to inhibit the transactivation of the enzyme luciferase mediated via the estrogen receptor by the estrogen Org 2317 (estradiol, 1, 3, 5 (10)-estratriene-3,17β-diol) is compared with the standard Org 34790 (ICI 164.384; (7α,17β)-N-butyl-3,17-dihydroxy-N-methylestra-1,3,5 (10)-triene-7-undecanamide).
(§4) Test medium: Intact recombinant CHO cells stably co-transfected with the human estrogen receptor, the rat oxytocin promoter and the luciferase reporter gene. The cell line has been produced within the Department of Biotechnology and Biochemistry (BBC) (N.V. Organon) and is known under the name CHO-ERRO 2B1-1E9.
(§5) The data are expressed in percentage of the action of the reference compound in the assay

Test [3] concerns the target T1, human estrogen β receptor (hERβ). The test can be described thus: transactivation assay in recombinant CHO cells (rat oxytocin promoter, luciferase reporter), β. The class given is cell-based. Particulars: potency ratio, in percentage of the action of the reference compound in the assay. Here is the method: as §2, §3, §4, §5
In general terms: In a reporter assay the amount or activity of a reporter protein is the signal.

Test [4] deals with T2, human estrogen receptor α (hERα). The test can be described thus: competitive binding to cytoplasmic human estrogen receptor from recombinant CHO cells (α-binding). Particulars: relative affinity (potency ratio), in percentage of the action of the reference compound in the assay; cytosol of recombinant CHO cells. Here is the method: as §1

T1 sequence (Q92731 whole entry): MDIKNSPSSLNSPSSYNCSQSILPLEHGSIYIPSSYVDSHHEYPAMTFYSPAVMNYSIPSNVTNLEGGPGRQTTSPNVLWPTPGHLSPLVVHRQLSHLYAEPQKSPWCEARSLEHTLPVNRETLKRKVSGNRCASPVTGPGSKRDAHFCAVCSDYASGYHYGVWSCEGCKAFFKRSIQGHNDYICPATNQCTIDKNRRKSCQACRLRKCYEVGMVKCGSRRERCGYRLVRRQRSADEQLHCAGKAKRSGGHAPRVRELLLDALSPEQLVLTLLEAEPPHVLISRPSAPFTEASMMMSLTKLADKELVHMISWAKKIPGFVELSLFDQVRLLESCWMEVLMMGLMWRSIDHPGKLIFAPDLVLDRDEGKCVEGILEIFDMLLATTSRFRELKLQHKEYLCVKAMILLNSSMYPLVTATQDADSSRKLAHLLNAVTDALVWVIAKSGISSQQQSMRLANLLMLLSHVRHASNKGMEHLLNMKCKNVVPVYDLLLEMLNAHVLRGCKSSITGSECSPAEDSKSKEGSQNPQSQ

Regarding `C#C[C@]1(O)CCC2C3CCC4=C(CC[C@@H](O)C4)C3[C@@H](CC=C)C[C@@]21C` (stereo partly drawn) [Compound 11, (3α,11β,17β)-11-(2-propenyl)-19-norpregn-5(10)-en-20-yne-3,17-diol], the β-binding in test [1] was 1.1 percentage. For the same compound, the α-transactivation in test [2] worked out at 58 percentage. For the same compound, the β-transactivation in test [3] came to 0.8 percentage. Further, in test [4], the α-binding. was 57 percentage.
The corresponding values for `C#C[C@]1(O)CCC2C3CC[C@H]4C[C@@H](O)CCC4C3[C@@H](C(F)F)C[C@@]21C` (stereo partly drawn) [Compound 21, (3β,5α,11β,17β)-11-difluoromethyl-19-norpregn-20-yne-3,17-diol] are 0.2 percentage, 7.7 percentage, 0.1 percentage and 8.6 percentage.
The corresponding values for `C#C[C@]1(O)CCC2C3CC[C@H]4C[C@@H](O)CCC4C3[C@@H](CCF)C[C@@]21C` (stereo partly drawn) [Compound 31, (3β,5α,11β,17β)-11-(2-fluoroethyl)-19-norpregn-20-yne-3,17-diol] are 0.1 percentage, 9.6 percentage, 0.2 percentage and 37 percentage.
Turning to `C#C[C@]1(O)CCC2C3CC[C@H]4C[C@H](O)CCC4C3[C@@H](CCF)C[C@@]21C` (stereo partly drawn) [Compound 32, (3α,5α,11β,17β)-11-(2-fluoroethyl)-19-norpregn-20-yne-3,17-diol], the β-binding in test [1] was under 0.1 percentage. In addition, the α-transactivation in test [2] came out at 2.4 percentage. Further, the β-transactivation in test [3] stood at 0.1 percentage. For the same compound, the α-binding. in test [4] was 2,6 percentage.
On to `C#C[C@]1(O)CCC2C3CCC4=C(CC[C@@H](O)C4)C3[C@@H](CCC=C)C[C@@]21C` (stereo partly drawn) [Compound 42, (3α,11β,17β)-11-(3-butenyl)-I9-norpregn-5(10)-en-20-yne-3,17-diol], for which the β-binding in test [1] is given as 0.1 percentage. In test [2], the α-transactivation stood at 2 percentage. Also, the β-transactivation in test [3] was under 0.04 percentage. Besides, the α-binding. in test [4] is given as 29 percentage.
As to `C#C[C@]1(O)CCC2C3CCC4=C(CC[C@H](O)C4)C3[C@@H](CCC=C)C[C@@]21C` (stereo partly drawn) [Compound 43, (3β,11β,17β)-11-(3-butenyl)-19-norpregn-5(10)-en-20-yne-3,17-diol], the β-binding in test [1] stood at 0.1 percentage. For the same compound, the α-transactivation in test [2] is reported as 1.3 percentage. Besides, in test [3], the β-transactivation is given as under 0.1 percentage. In test [4], the α-binding. was found to be 11.9 percentage.
As for `C#C[C@]1(O)CCC2C3C(C4=C(C[C@@H](O)CC4)C[C@H]3C)[C@@H](CCF)C[C@@]21C` (stereo partly drawn) [Compound 54, (3β,7α,11β,17β)-11-(2-fluoroethyl)-7-methyl-19-norpregn-5(10)-en-20-yne-3,17-diol], the β-binding in test [1] was found to be 0.1 percentage. Moreover, the α-transactivation in test [2] was determined as 29.7 percentage. Besides, in test [3], the β-transactivation turned out to be 1.0 percentage. For the same compound, in test [4], the α-binding. is 27,5 percentage.
The corresponding values for `C#C[C@]1(O)CCC2C3C(C4=C(C[C@H](O)CC4)C[C@H]3C)[C@@H](CCF)C[C@@]21C` (stereo partly drawn) [Compound 55, (3α,7α,11β,17β)-11-(2-fluoroethyl)-7-methyl-19-norpregn-5(10)-en-20-yne-3,17-diol] are 0.1 percentage, 61.5 percentage, 1.9 percentage and 36 percentage.
`C#C[C@]1(O)[C@H](C)CC2C3C(C(=C)C[C@@]21C)C1CC[C@H](O)C[C@@H]1C[C@H]3C` (stereo partly shown) [Compound 81]: the α-transactivation in test [2] came to 27 percentage. The β-transactivation in test [3] was determined as 0.1 percentage.
